According to patent US11439618B2, “Compositions and methods for lowering triglycerides” (Amarin Pharmaceuticals Ireland Limited, priority 2009, dated 2022):

Experiment: Essential fatty acid (EFA) parameters in plasma and RBC, gas chromatography of fatty acid methyl esters
Format: in vivo, human
Description: Blood samples (10 mL) were collected at Visit 1 (screening) and at Visits 4, 5 and 6. Analysis was performed by MSR Lipid Analysis, Scottish Crop Research Institute, Dundee, UK. The screening sample acted as baseline for the EFA measurements. Lipid was extracted from plasma, serum and RBC suspensions and converted into fatty acid methyl esters which were analyzed by gas chromatography to give fatty acid profiles as micrograms fatty acid per gram of sample (μgFA/g) and normalized area percent.
RBC and plasma EFA data were collected at baseline, Day 14, 28 and 42 and summarized by visit for each treatment group. Change from baseline and percent change from baseline were also summarized. ANCOVA comparison of ethyl-EPA dose groups and ethyl-EPA versus placebo was performed.
Notable changes for these parameters occurred in the ethyl-EPA treatment groups at Days 14, 28 and 42 compared to placebo.

CC/C=C\C/C=C\C/C=C\C/C=C\C/C=C\CCCC(=O)OCC [Ethyl-EPA, all-cis eicosa-5,8,11,14,17-pentaenoic acid ethyl ester]
AA Mean at Baseline (RBC, 1 g daily group, Baseline): 171.2 µg/g
DGLA Mean at Baseline (RBC, 1 g daily group, Baseline): 23.0 µg/g
DHA Mean at Baseline (RBC, 1 g daily group, Baseline): 66.5 µg/g
DPAn-3 Mean at Baseline (RBC, 1 g daily group, Baseline): 34.1 µg/g
EPA Mean at Baseline (RBC, 1 g daily group, Baseline): 19.8 µg/g
EPA/AA Mean (SD) at Baseline (RBC, 1 g daily group, Baseline): 0.1 (0.07)
AA Mean change from Baseline (RBC, 1 g daily, Day 14): -8.1 µg/g
DGLA Mean change from Baseline (RBC, 1 g daily, Day 14): -2.7 µg/g
DHA Mean change from Baseline (RBC, 1 g daily, Day 14): -4.6 µg/g
DPAn-3 Mean change from Baseline (RBC, 1 g daily, Day 14): 0.9 µg/g
EPA Mean change from Baseline (RBC, 1 g daily, Day 14): 12.3 µg/g
EPA/AA Mean (SD) change from Baseline (RBC, 1 g daily, Day 14): 0.1 (0.04)
AA Mean change from Baseline (RBC, 1 g daily, Day 28): -17.0 µg/g
DGLA Mean change from Baseline (RBC, 1 g daily, Day 28): -3.8 µg/g
DHA Mean change from Baseline (RBC, 1 g daily, Day 28): -6.4 µg/g
DPAn-3 Mean change from Baseline (RBC, 1 g daily, Day 28): 3.3 µg/g
EPA Mean change from Baseline (RBC, 1 g daily, Day 28): 14.5 µg/g
EPA/AA Mean (SD) change from Baseline (RBC, 1 g daily, Day 28): 0.1 (0.05)
AA Mean change from Baseline (RBC, 1 g daily, Day 42): -14.2 µg/g
DGLA Mean change from Baseline (RBC, 1 g daily, Day 42): -3.5 µg/g
DHA Mean change from Baseline (RBC, 1 g daily, Day 42): -7.0 µg/g
DPAn-3 Mean change from Baseline (RBC, 1 g daily, Day 42): 6.5 µg/g
EPA Mean change from Baseline (RBC, 1 g daily, Day 42): 17.6 µg/g
EPA/AA Mean (SD) change from Baseline (RBC, 1 g daily, Day 42): 0.1 (0.06)
AA LS Mean, 1 or 2 g versus 4 g (RBC, 1 g versus 4 g): 8.4 µg/g
DGLA LS Mean, 1 or 2 g versus 4 g (RBC, 1 g versus 4 g): 1.5 µg/g
DHA LS Mean, 1 or 2 g versus 4 g (RBC, 1 g versus 4 g): 1.0 µg/g
DPAn-3 LS Mean, 1 or 2 g versus 4 g (RBC, 1 g versus 4 g): -6.2 µg/g
EPA LS Mean, 1 or 2 g versus 4 g (RBC, 1 g versus 4 g): -24.4 µg/g
EPA/AA LS Mean, 1 or 2 g versus 4 g (RBC, 1 g versus 4 g): −0.18
AA Mean at Baseline (RBC, 2 g daily group, Baseline): 172.8 µg/g
DGLA Mean at Baseline (RBC, 2 g daily group, Baseline): 23.0 µg/g
DHA Mean at Baseline (RBC, 2 g daily group, Baseline): 64.8 µg/g
DPAn-3 Mean at Baseline (RBC, 2 g daily group, Baseline): 33.2 µg/g
EPA Mean at Baseline (RBC, 2 g daily group, Baseline): 18.9 µg/g
EPA/AA Mean (SD) at Baseline (RBC, 2 g daily group, Baseline): 0.1 (0.06)
AA Mean change from Baseline (RBC, 2 g daily, Day 14): -3.1 µg/g
DGLA Mean change from Baseline (RBC, 2 g daily, Day 14): -2.6 µg/g
DHA Mean change from Baseline (RBC, 2 g daily, Day 14): -2.0 µg/g
DPAn-3 Mean change from Baseline (RBC, 2 g daily, Day 14): 5.6 µg/g
EPA Mean change from Baseline (RBC, 2 g daily, Day 14): 26.9 µg/g
EPA/AA Mean (SD) change from Baseline (RBC, 2 g daily, Day 14): 0.2 (0.04)
AA Mean change from Baseline (RBC, 2 g daily, Day 28): -14.1 µg/g
DGLA Mean change from Baseline (RBC, 2 g daily, Day 28): -4.5 µg/g
DHA Mean change from Baseline (RBC, 2 g daily, Day 28): -6.2 µg/g
DPAn-3 Mean change from Baseline (RBC, 2 g daily, Day 28): 9.4 µg/g
EPA Mean change from Baseline (RBC, 2 g daily, Day 28): 32.9 µg/g
EPA/AA Mean (SD) change from Baseline (RBC, 2 g daily, Day 28): 0.02 (0.06)
AA Mean change from Baseline (RBC, 2 g daily, Day 42): -18.8 µg/g
DGLA Mean change from Baseline (RBC, 2 g daily, Day 42): -5.3 µg/g
DHA Mean change from Baseline (RBC, 2 g daily, Day 42): -6.3 µg/g
DPAn-3 Mean change from Baseline (RBC, 2 g daily, Day 42): 13.2 µg/g
EPA Mean change from Baseline (RBC, 2 g daily, Day 42): 38.3 µg/g
EPA/AA Mean (SD) change from Baseline (RBC, 2 g daily, Day 42): 0.3 (0.06)
AA LS Mean, 1 or 2 g versus 4 g (RBC, 2 g versus 4 g): 9.8 µg/g
DGLA LS Mean, 1 or 2 g versus 4 g (RBC, 2 g versus 4 g): 1.5 µg/g
DHA LS Mean, 1 or 2 g versus 4 g (RBC, 2 g versus 4 g): 1.0 µg/g
DPAn-3 LS Mean, 1 or 2 g versus 4 g (RBC, 2 g versus 4 g): -2.5 µg/g
EPA LS Mean, 1 or 2 g versus 4 g (RBC, 2 g versus 4 g): -11.8 µg/g
EPA/AA LS Mean, 1 or 2 g versus 4 g (RBC, 2 g versus 4 g): −0.11
AA Mean (SD) at Baseline (RBC, 4 g daily group, Baseline): 171.0 (25.17) μg/g
DGLA Mean at Baseline (RBC, 4 g daily group, Baseline): 24.0 µg/g
DHA Mean at Baseline (RBC, 4 g daily group, Baseline): 68.3 µg/g
DPAn-3 Mean at Baseline (RBC, 4 g daily group, Baseline): 34.5 µg/g
EPA Mean at Baseline (RBC, 4 g daily group, Baseline): 19.8 µg/g
EPA/AA Mean (SD) at Baseline (RBC, 4 g daily group, Baseline): 0.1 (0.04)
AA Mean (SD) change from Baseline (RBC, 4 g daily, Day 14): −15.7 (26.76) μg/g
DGLA Mean change from Baseline (RBC, 4 g daily, Day 14): -5.3 µg/g
DHA Mean change from Baseline (RBC, 4 g daily, Day 14): -6.9 µg/g
DPAn-3 Mean change from Baseline (RBC, 4 g daily, Day 14): 5.4 µg/g
EPA Mean change from Baseline (RBC, 4 g daily, Day 14): 39.5 µg/g
EPA/AA Mean (SD) change from Baseline (RBC, 4 g daily, Day 14): 0.3 (0.07)
AA Mean (SD) change from Baseline (RBC, 4 g daily, Day 28): −22.8 (29.56) μg/g
DGLA Mean change from Baseline (RBC, 4 g daily, Day 28): -7.1 µg/g
DHA Mean change from Baseline (RBC, 4 g daily, Day 28): -8.7 µg/g
DPAn-3 Mean change from Baseline (RBC, 4 g daily, Day 28): 12.4 µg/g
EPA Mean change from Baseline (RBC, 4 g daily, Day 28): 50.2 µg/g
EPA/AA Mean (SD) change from Baseline (RBC, 4 g daily, Day 28): 0.4 (0.11)
AA Mean (SD) change from Baseline (RBC, 4 g daily, Day 42): −34.4 (31.44) μg/g
DGLA Mean change from Baseline (RBC, 4 g daily, Day 42): -8.0 µg/g
DHA Mean change from Baseline (RBC, 4 g daily, Day 42): -13.8 µg/g
DPAn-3 Mean change from Baseline (RBC, 4 g daily, Day 42): 16.2 µg/g
EPA Mean change from Baseline (RBC, 4 g daily, Day 42): 52.5 µg/g
EPA/AA Mean (SD) change from Baseline (RBC, 4 g daily, Day 42): 0.4 (0.14)
Difference in EPA, AA (RBC only), DPAn-3, DGLA (1 g only for plasma) and EPA/AA ratio levels, 4 g compared to 1 g and 2 g (plasma and RBC, LS means, p≤0.05): significantly (LS means, p≤0.05) different
